# Assays:
# [1] = murine plasma; cited from earlier work
# [2] = human plasma; cited from earlier work
# [3] = Solubility of docetaxel in trehalose or water; format: physicochemical
solubility [3] [µM],Compound,in vitro half life [1] [min],half life [2]
–,C/C1=C/C[C@@H](/C(C)=C/c2csc(C)n2)OC(=O)C[C@H](O)C(C)(C)C(=O)[C@H](C)[C@@H](O)[C@@H](C)CCC1 [desoxy-epothilone B],~20,around 3 h
~20,CC(=O)O[C@@]12CO[C@@H]1C[C@H](O)[C@@]1(C)C(=O)[C@H](O)C3=C(C)[C@@H](OC(=O)[C@H](O)[C@@H](NC(=O)OC(C)(C)C)c4ccccc4)C[C@@](O)([C@@H](OC(=O)c4ccccc4)[C@H]21)C3(C)C [docetaxel],–,–

# — US9238021B2, “Method of producing a cationic liposomal preparation comprising a lipophilic compound” (MEDIGENE AG, priority 2002, dated 2016)
